≈ marks a conversion by molar mass, not a printed value. A value given as a limit tells only on which side of the number the result lay.

Consider 5 molecules from ChEMBL document CHEMBL3091348, “Discovery of an intravenous hepatoselective glucokinase activator for the treatment of inpatient hyperglycemia” (Bioorg Med Chem Lett, 2013).

Series [1] addresses T1, Hexokinase-4 (Homo sapiens, UniProt P35557).
T1 sequence (P35557 whole entry): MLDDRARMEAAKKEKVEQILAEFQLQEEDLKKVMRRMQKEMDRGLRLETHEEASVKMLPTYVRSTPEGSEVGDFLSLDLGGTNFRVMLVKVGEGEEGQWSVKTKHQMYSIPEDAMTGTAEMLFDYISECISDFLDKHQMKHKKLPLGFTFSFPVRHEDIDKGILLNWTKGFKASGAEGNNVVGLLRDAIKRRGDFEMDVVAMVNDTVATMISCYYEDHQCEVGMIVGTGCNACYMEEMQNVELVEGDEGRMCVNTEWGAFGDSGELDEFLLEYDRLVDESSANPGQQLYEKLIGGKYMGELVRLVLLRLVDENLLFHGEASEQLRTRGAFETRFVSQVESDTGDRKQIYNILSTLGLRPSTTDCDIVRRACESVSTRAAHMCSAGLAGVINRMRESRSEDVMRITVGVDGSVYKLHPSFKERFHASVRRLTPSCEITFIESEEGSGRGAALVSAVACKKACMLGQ
In words: Activation of recombinant human glucokinase by G6PDH/NADP coupled assay.

Series [2] has as its target T2, Hexokinase-4 (Homo sapiens) (UniProt P35557).
T2 sequence (whole entry): T1 sequence (P35557 whole entry)
In words: Activation of recombinant human glucokinase assessed as decrease in enzyme Km for glucose by G6PDH/NADP coupled assay relative to control.

Series [3] deals with T3, Hexokinase-4 (Rattus norvegicus, UniProt P17712).
T3 sequence (P17712 whole entry): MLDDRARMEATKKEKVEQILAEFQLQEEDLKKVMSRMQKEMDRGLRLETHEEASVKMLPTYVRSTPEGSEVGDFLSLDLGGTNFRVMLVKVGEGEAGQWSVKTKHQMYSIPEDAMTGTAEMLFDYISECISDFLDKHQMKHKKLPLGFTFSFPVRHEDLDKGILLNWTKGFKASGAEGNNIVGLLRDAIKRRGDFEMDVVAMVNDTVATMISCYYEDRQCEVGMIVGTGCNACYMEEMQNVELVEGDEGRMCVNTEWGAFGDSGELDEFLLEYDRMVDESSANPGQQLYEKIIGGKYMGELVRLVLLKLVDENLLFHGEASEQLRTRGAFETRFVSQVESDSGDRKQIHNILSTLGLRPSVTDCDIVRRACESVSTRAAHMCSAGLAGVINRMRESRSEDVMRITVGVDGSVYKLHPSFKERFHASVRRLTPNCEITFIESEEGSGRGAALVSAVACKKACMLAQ
In words: Activation of glucokinase in rat INS-1 cells assessed as glucose-stimulated insulin secretion. The format is cell-based, INS1.

Series [4] is described as follows: Apparent permeability across RRCK cells. The following applies: dog, MDCK. The format is ADME, cell-based, Canis lupus familiaris, MDCKII-LE.
The target of series [5] is T2, Hexokinase-4 (Homo sapiens). In words: Activation of recombinant human glucokinase assessed as increase in enzyme Vmax for glucose by G6PDH/NADP coupled assay relative to control.
Series [6] in a line: Lipophilicity, log D of the compound at pH 7.4. The format is physicochemical. The conditions noted are these: buffer.
Series [7] in a line: Organic anion transporter-mediated drug uptake in rat hepatocytes assessed as total uptake. Format: ADME, cell-based, Hepatocyte.
Series [8] in a line: Organic anion transporter-mediated drug uptake in rat hepatocytes assessed as passive uptake. The format is ADME, cell-based, Hepatocyte.
Series [9] in a line: Organic anion transporter-mediated drug uptake in rat hepatocytes assessed as active uptake. The format is ADME, cell-based, Hepatocyte.
Series [10] can be described thus: Aqueous kinetic solubility of the compound at pH 6.5. The conditions noted are these: read-out: Kinetic_solubility. Format: physicochemical.

`O=C(O)c1ccc(NC(=O)[C@H](CC2CCCC2)n2cnc(S(=O)(=O)C3CC3)c2)nc1`: the EC50 at Hexokinase-4 [1] was found to be 137 nM; at Hexokinase-4 [3], 26000 nM. Further, the fold change (FC) in [2] was 0.05; in series [5] it was 1.68. Besides, the Papp in series [4] stood at 0.6 ×10⁻⁶ cm/s. The same molecule showed a log distribution coefficient (logD) in [6] of -0.2.
Turning to `O=C(O)c1ccc(NC(=O)[C@H](CC2CCOCC2)n2cnc(S(=O)(=O)C3CCC3)c2)nc1`, the EC50 at Hexokinase-4 [1] is over 10000 nM. Also, the Papp in series [4] was 0.9 ×10⁻⁶ cm/s. Also, the logD in series [6] is -1.55.
For the molecule `CC(C)c1nc(N(C)S(C)(=O)=O)nc(-c2ccc(F)cc2)c1/C=C/[C@@H](O)C[C@@H](O)CC(=O)O` [ROSUVASTATIN], the figures for the Drug uptake in series [7], in [8] and in series [9] were 158 µL/min/mg, 5.8 µL/min/mg and 91%, respectively.
For the molecule `O=C(O)c1ccc(NC(=O)[C@H](CC2CCOCC2)n2cnc(S(=O)(=O)C3CC3)c2)nc1`, the EC50 on Hexokinase-4 [1] came to 1350 nM. The fold change (FC) in series [2] turned out to be 0.11; in series [5] it was 1.21. Further, the apparent permeability coefficient (Papp) in series [4] came to 0.9 ×10⁻⁶ cm/s. The molecule also returned a logD in series [6] of -1.85.
With `O=C(O)c1ccc(NC(=O)[C@H](CC2CCCCC2)n2cnc(S(=O)(=O)C3CCC3)c2)nc1`, on Hexokinase-4 [1], the EC50 was 227 nM. Besides, in series [10], the solubility kinetic was 198 µM (≈ 91.2 µg/mL). For the same molecule, the fold change (FC) in series [2] is 0.08; in series [5] it was 1.25. The Papp in series [4] is 0.3 ×10⁻⁶ cm/s. In [6], the logD came out at 0.15.
